{
  "source": "paper PMC3121796",
  "about": "(PLoS ONE, 2011)",
  "key": {"human Nav1.7 (hNav1.7)": {"molecular_target": "T1, human Nav1.7 (hNav1.7) (Homo sapiens, UniProt Q15858)", "T1 construct": "expressed in transfected cells; host or cells: HEK293", "T1 sequence (Q15858 whole entry)": "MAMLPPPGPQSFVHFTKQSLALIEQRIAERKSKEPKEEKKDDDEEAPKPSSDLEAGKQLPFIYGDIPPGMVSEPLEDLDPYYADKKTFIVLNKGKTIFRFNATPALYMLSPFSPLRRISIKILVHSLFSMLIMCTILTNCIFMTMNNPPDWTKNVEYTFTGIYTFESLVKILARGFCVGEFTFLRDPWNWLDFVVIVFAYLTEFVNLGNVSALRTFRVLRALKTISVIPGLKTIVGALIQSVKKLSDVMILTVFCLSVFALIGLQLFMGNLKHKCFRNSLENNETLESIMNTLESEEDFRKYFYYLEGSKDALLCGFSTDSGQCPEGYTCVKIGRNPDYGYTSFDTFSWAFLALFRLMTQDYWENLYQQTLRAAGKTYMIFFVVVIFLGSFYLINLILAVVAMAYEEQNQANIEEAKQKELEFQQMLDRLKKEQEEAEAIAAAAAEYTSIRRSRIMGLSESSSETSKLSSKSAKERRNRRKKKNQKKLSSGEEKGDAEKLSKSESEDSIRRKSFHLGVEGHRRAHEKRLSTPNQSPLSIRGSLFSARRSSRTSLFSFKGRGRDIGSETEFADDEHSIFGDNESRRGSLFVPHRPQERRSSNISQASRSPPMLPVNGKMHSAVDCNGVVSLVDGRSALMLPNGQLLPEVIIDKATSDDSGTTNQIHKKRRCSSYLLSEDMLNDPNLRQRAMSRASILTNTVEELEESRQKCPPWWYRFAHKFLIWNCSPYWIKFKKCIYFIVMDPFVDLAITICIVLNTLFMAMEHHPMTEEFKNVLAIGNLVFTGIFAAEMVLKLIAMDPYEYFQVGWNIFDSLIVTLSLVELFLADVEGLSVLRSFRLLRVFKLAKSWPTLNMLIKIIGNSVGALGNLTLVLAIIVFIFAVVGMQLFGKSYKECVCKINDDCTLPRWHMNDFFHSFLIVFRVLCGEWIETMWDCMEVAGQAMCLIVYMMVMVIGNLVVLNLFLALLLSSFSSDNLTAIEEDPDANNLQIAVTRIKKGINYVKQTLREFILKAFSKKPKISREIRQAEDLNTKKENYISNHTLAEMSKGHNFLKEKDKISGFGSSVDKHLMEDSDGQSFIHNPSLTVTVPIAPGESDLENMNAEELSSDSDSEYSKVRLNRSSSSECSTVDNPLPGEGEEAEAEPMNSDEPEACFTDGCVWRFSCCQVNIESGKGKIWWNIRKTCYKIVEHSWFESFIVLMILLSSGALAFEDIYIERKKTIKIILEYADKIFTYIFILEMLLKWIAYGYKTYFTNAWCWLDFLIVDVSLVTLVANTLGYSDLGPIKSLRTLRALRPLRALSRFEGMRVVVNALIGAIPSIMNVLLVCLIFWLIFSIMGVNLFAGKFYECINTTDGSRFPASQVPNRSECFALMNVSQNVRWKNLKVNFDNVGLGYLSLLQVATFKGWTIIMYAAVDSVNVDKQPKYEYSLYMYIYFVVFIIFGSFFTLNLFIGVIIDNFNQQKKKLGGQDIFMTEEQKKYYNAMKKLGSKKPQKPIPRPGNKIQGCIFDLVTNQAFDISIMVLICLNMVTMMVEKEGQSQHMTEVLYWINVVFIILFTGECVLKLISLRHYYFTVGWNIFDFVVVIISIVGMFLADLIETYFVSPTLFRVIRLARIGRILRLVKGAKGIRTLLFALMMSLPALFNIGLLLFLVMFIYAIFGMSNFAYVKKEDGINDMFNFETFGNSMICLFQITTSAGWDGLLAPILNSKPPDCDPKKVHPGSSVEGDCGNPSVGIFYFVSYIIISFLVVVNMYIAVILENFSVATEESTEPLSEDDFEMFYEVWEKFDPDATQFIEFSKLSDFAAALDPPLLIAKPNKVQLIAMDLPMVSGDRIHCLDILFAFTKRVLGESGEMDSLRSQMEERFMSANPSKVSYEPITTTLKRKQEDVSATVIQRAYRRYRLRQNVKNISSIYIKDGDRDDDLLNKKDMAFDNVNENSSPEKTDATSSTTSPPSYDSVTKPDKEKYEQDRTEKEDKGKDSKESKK", "assay": "whole-cell patch-clamp assay, inhibition of hNav1.7 currents", "format": "cell-based", "details": "1 µmole/L toxin, HEK293 cells expressing hNav1.7, depolarization to −10 mV, room temperature, one range given for both toxins"}, "[1]": {"details": "cited from earlier work", "from_the_text": "It was reported that the cytoplasm of E. coli cells contains high levels of reduced glutathione (approximately 5 mmole/L); therefore, the potential of ..."}},
  "note": "Positions of bridges follow the written chain, without caps; N, C: chain ends. Residues, ends and D or L forms follow the SMILES beside them. No end group written: not given here.",
  "data": [
    {"molecule": "CC(C)C[C@H](NC(=O)[C@H](CCCCN)NC(=O)[C@H](Cc1c[nH]c2ccccc12)NC(=O)[C@H](CCCCN)NC(=O)[C@@H]1CSSC[C@@H]2NC(=O)[C@H](CCC(=O)O)NC(=O)[C@H](CC(N)=O)NC(=O)[C@H](CCCCN)NC(=O)CNC(=O)[C@@H]3CCCN3C(=O)[C@H]([C@@H](C)O)NC(=O)[C@@H]3CSSC[C@H](NC(=O)[C@H](C(C)C)NC(=O)[C@H](CCCNC(=N)N)NC(=O)[C@H](CC(N)=O)NC(=O)[C@@H]4CCCN4C(=O)[C@H](CSSC[C@H](NC(=O)[C@H](C)N)C(=O)N[C@@H](CCCCN)C(=O)NCC(=O)N[C@@H](C(C)C)C(=O)N[C@@H](Cc4ccccc4)C(=O)N[C@@H](CC(=O)O)C(=O)N[C@@H](C)C(=O)N3)NC2=O)C(=O)N[C@@H](CO)C(=O)N[C@@H](CC(=O)O)C(=O)N[C@@H](CCCCN)C(=O)N[C@@H](Cc2c[nH]cn2)C(=O)N[C@@H](CCCCN)C(=O)N[C@@H](Cc2c[nH]c3ccccc23)C(=O)N1)C(=O)O", "note": "[rHWTX-I] (H-ACKGVFDACTPGKNECCPNRVCSDKHKWCKWKL-OH; disulfide 2-17, 9-22, 16-29)", "values": [
      {"measurement": "hNav1.7 current reduced to (remaining current)", "setting": "human Nav1.7 (hNav1.7)", "result": "33–36%"}
    ]},
    {"molecule": "rHWTX-I (GST or KIS fusion, cytoplasm): earlier rHWTX-I expressed fused with GST or ketosteroid isomerase (KIS) in the cytoplasm of E. coli cells (ACKGVFDACTPGKNECCPNRVCSDKHKWCKWKL; not fully specified; cysteine pairing not given here; UniProt P56676 49-81, looked up)", "values": [
      {"measurement": "bioactivity after release by enzyme digestion", "setting": "[1]; GST fusion expressed in cytoplasm of E. coli, no disulfide bridge formed, ref [8]", "result": "very low bioactivity"},
      {"measurement": "bioactivity after reduction/renaturation", "setting": "[1]; released from GST or KIS fusion protein expressed in cytoplasm of E. coli, after reduction/renaturation treatment, ref [8], [9]", "result": "fully restore the bioactivities"},
      {"measurement": "bioactivity before reduction/renaturation", "setting": "[1]; released from GST or KIS fusion protein expressed in cytoplasm of E. coli, before reduction/renaturation treatment, ref [8], [9]", "result": "extremely low bioactivity"}
    ]},
    {"molecule": "rHWTX-I (baculovirus): earlier rHWTX-I expressed in a baculovirus system (ACKGVFDACTPGKNECCPNRVCSDKHKWCKWKL; ends and bridges not checked; cysteine pairing not given here; UniProt P56676 49-81, looked up)", "values": [
      {"measurement": "bioactivity of baculovirus-expressed peptide", "setting": "[1]; baculovirus system, ref [11]", "result": "demonstrated natural bioactivities"}
    ]}
  ]
}
